# Test results published in US20050130890A1, “Amyloid beta is a ligand for FPR class receptors” (priority 2001, published 2005).
# Key:
# human monocytes [1] = assay: Chemotaxis (migration) of human monocytes, 48-well chamber; format: cell-based; conditions: PT 100 ng/ml, 37° C., 30 min
# Source text: (§1) Reagents and cells. Aβ peptide (Aβ42) and the peptide with reversed sequence (Aβ42-1) were purchased from California Peptide Research (Napa, Calif.). All peptides were examined for endotoxin contamination and were negative at highest concentrations used in the study. Human peripheral blood monocytes were isolated from buffy coats (National Institutes of Health Clinical Center, Bethesda, Md.) enriched for mononuclear cells by using iso-osmotic Percoll gradient. The purity of the cell preparations was examined by morphology and was >90%. Rat basophilic leukemia cell line (RBL-2H3) transfected with epitope-tagged N-formylpeptide receptor (FPR) (designated ETFR) was a kind gift of Dr. R. Snyderman (Duke University, Durham, N.C.). cDNA cloning and establishment of FPRL1-transfected human embryonic kidney (HEK) 293 cells (FPRL1/293) were described previously (Gao J. L. & Murphy P. M. 1993 J Biol Chem 268:[…]). All the transfected cells were maintained in culture media as described (Su S. B. et al. 1999 J Exp Med 189:395-402).
# (§2) Chemotaxis assays and measurement of calcium mobilization. Chemotaxis assays were performed using 48-well chemotaxis chambers (Deng X. et al. 1999 Blood 94:1165-1673). The results were expressed as the mean number (±SD) of migrated cells in three high-powered fields in three replicate samples. Chemotaxis index, which represented the fold increase in the number of cells migrated in response to chemoattractants over the cell response to control medium, also was used. Ca^+ mobilization was measured by stimulating fura-2 AM-loaded human monocytes or receptor-transfected cells with various agents (Deng X. et al. 1999 Blood 94:1165-1673; Su S. B. et al. 1999 J Exp Med 189:395-402) and recording the ratio of fluorescence at 340 and 380 nm in a luminescence spectrometer with FL WinLab program (Perkin-Elmer, Beaconsfield, UK).
# mouse neutrophils = assay: Calcium flux in mouse neutrophils; format: cell-based; conditions: PTX 250 ng/ml for 4 h
# Experimental: Preparation of Mouse Neutrophils. Neutrophils were obtained from the peritoneal cavity of wild type and gene knockout litter mates of F1 and F6 backcrosses of 129/sV FPR−/− mice with C57B1/6 mice 3-4 h after intraperitoneal injection of a 3% thioglycollate solution, as previously described (Gao J-L. et al. 1999 J Exp Med 189:657-662). The cell population was consistently composed of >90% neutrophils, as determined by light microscopy of DiffQuick-stained cytospins. Thus, hereafter we will refer to this cell preparation as neutrophils.
# Calcium Flux Analysis. To monitor intracellular Ca^2+ concentration, adherent cells were harvested by incubation in phosphate-buffered saline at 37° C. for 15 min and then incubated in phosphate-buffered saline containing 2.5 μM Fura-2/AM at 37° C. for 45 min. […] Data were recorded every 200 ms as the relative ratio of fluorescence emitted at 510 nm following sequential excitation at 340 and 380 nm. The following ligands were evaluated: Aβ (nonfibrillated, human residues 1-42; California Peptide Research; Napa, Calif.), fMet-Leu-Phe (fMLF; Sigma), ATP (Life Technologies), and the chemokines RANTES (regulated upon activation normal T-cell expressed and secreted), SDF-1 (stromal cell-derived factor-1), 1-309, fractalkine, MIP-1α (macrophage inflammatory protein-1α), and KC (Peprotech, Rocky Hill, N.J.). […]
# human monocytes [2] = assay: Ca2+ mobilization in fura-2 loaded human monocytes; format: cell-based; conditions: PT-treated cells, 20 μM Aβ42
# Source text: as §1, §2
# [3] = test system: N9 murine microglial cell line; assay: Chemotaxis of N9 microglial cells; format: cell-based, mouse; conditions: LPS-activated N9 cells; PTX 100 ng/ml, 37° C., 30 min
substance,measurement,setting,value
pertussis toxin,effect of preincubation on monocyte migration in response to Aβ42,human monocytes [1],completely abolished
same,effect of pretreatment on Aβ induction of calcium flux,mouse neutrophils,completely blocked
same,effect of preincubation on monocyte calcium flux in response to Aβ42,human monocytes [2],completely abolished
same,effect of pretreatment on chemotaxis to Aβ,[3],completely blocked
